Where “and” joins values, the source holds several entries; their conditions need not be identical. Identical values can stand only once. Entries after “also recorded” stand apart in the source; their conditions may differ.

Consider 2 molecules from patent US5858667A, “Method for the enumeration of micronucleated erythrocyte populations with a single laser flow cytometer” (Litron Laboratories, priority 1996, dated 1999).

Data set [1] deals with micronucleated polychromatic erythrocytes. The conditions noted are these: administered 2 hours before clastogen exposure; cited from earlier work.
The subject of data set [2] is normochromatic erythrocytes. As to the kind of experiment: Flow cytometric micronucleus assay (FITC-anti-CD71/propidium iodide), normochromatic erythrocytes, MMS-treated mice. In kind it is in vivo, male BALB/c mice. The note with it: for Average Freq. (%) MN-NCE: average of 5 mice; for Freq. (%) MN-NCE / No. MN-NCE / No. NCE: individual mouse. How it is done: (§1) Optimum flow cytometer settings are extremely important in this process. The fluorescent signals of the stained micronucleated normochromatic erythrocyte and micronucleated reticulocyte populations should be clearly resolved from those of the normochromatic erythrocyte and reticulocyte cell populations. In accordance with the method of the present invention, the analyses described herein were carried out with a single laser flow cytometer (Fac Star^PLUS ™, Becton Dickenson). The 5 W argon ion laser was tuned to provide 488 nm excitation. Cells were passed through the laser at an average rate of 2,500-8,000 erythrocytes/second. One embodiment of the invention is to use a 20μ elliptical beam that is focused at the sample stream. The results and analyses described herein were obtained with said beam. As known to those skilled in the art, different beam shapes are also acceptable.
(§2) The flow cytometer is equipped with four photomultiplier tubes (PMTs) which are used to sense forward light scatter, side light scatter, red fluorescence signals, and green fluorescence signals. Proper filters must be placed before the green and red photomultiplier tubes. In accordance with the methods of the present invention, adequate fluorescent signals can be obtained if a 520 nm long pass filter and a 555 nm short pass filter is placed before the green PMT. In accordance with the methods of the present invention, a 580 nm long pass filter in front of the red PMT is desirable. This is a preferred configuration that allows optimal fluorescence detection. However, as known to those skilled in the art, other filter sets may be acceptable. The signals received by the PMTs and the light scatter photodiode are processed by an in-line computer and cell populations of interest are quantitated (see, e.g., FIG. 1) using software conventional to the art. The data may be acquired and processed as either logarithmic or linear signals. In one configuration of the invention, log data was acquired for the forward light scatter, side scatter, as well as red and green fluorescence peak height signals.
(§3) Erythrocytes were isolated by gating on forward and side light scatter parameters. The stop mode of each analysis was reached when 500,000 total erythrocytes were interrogated. A window was set up corresponding to cells low in both fluorescence due to the labelled antibody with binding specificity for a surface marker for erythroblasts/reticulocytes (e.g., anti-CD71 antibody) and fluorescence due to the nucleic acid staining dye (e.g., propidium iodide), such as for detecting normochromatic erythrocytes in the erythrocyte population. A second gate was used to define cells low in anti-CD71 fluorescence and high in propidium iodide fluorescence, such as for detecting micronucleated normochromatic erythrocytes in the erythrocyte population. Another region corresponding to cells which were high in anti-CD71 fluorescence and low in propidium iodide fluorescence, such as for detecting reticulocytes in the erythrocyte population. A fourth region corresponding to cells which were high in both anti-CD71 fluorescence and in propidium iodide fluorescence was defined for detecting micronucleated reticulocytes in the erythrocyte population. Having defined these regions, the frequency of reticulocytes, micronucleated reticulocytes, micronucleated normochromatic erythrocytes, and normochromatic erythrocytes were automatically determined by the flow cytometry software.
(§4) Propidium iodide and FITC have been employed to simultaneously label nucleic acids and cell surface antigens in human B-cell lymphomas (Kruth et al., 1981, Cancer Res. 41:4895-4899; Montecucco et al., 1985, Basic Appl. Histochem. 29:275-2821). In the method according to the present invention the combined use of a nucleic acid staining dye, such as propidium iodide, and FITC-antibody labeling is utilized to differentially stain micronucleated reticulocytes. […]
In general terms: In flow cytometry, cells or beads pass a laser one at a time.

The test system of the next data set is reticulocytes. Nature of the data set: Flow cytometric micronucleus assay (FITC-anti-CD71/propidium iodide), reticulocytes, MMS-treated mice. In kind it is in vivo, male BALB/c mice. The conditions noted are these: for Average Freq. (%) MN-RET: average of 5 mice; for Freq. (%) MN-RET / No. MN-RET / No. RET: individual mouse. How it is done:
as §1, §2, §3, §4

The subject of another data set is micronuclei. The conditions noted are these: previous observations, different methodologies; cited from earlier work.
Where [3] appears, read: 0-72 h after 100 mg MMS/kg i.p., in words.

In the case of chlorophyllin, the “effect on incidence of micronucleated polychromatic erythrocytes induced by gamma radiation” value in data set [1] was “reduced the incidence of micronucleated polychromatic erythrocytes”.
Consider `COS(C)(=O)=O` [MMS, methyl methanesulfonate], for which the “micronuclei frequency in the mature normochromatic erythrocyte population, time course” value in data set [2] (setting [3]) was “rise gradually over the course of the experiment; also recorded: rose slightly”. Moreover, in data set [2] (24 h after 100 mg MMS/kg i.p.), the “Average Freq. (%) MN-NCE” value is recorded as 0.26%; the “Freq. (%) MN-NCE” value is 0.25% and 0.26% and 0.23% and 0.28%; the “No. MN-NCE” value was 1244 and 1287 and 1145 and 1254 and 1391; the “No. NCE” value was 490949 and 490112 and 488089 and 487462 and 490011. In data set [2] (40 h after 100 mg MMS/kg i.p.), the “Average Freq. (%) MN-NCE” value stood at 0.28%; the “Freq. (%) MN-NCE” value is 0.29% and 0.26% and 0.24% and 0.30%; the “No. MN-NCE” value was 1405 and 1285 and 1178 and 1445 and 1458; the “No. NCE” value is 490511 and 485301 and 486302 and 484237 and 492350. In data set [2] (48 h after 100 mg MMS/kg i.p.), the “Average Freq. (%) MN-NCE” value is on record as 0.30%; the “Freq. (%) MN-NCE” value is 0.31% and 0.32% and 0.27%; the “No. MN-NCE” value was 1515 and 1538 and 1298 and 1517 and 1339; the “No. NCE” value was 487164 and 481651 and 480648 and 476364 and 490250. In addition, in data set [2] (72 h after 100 mg MMS/kg i.p.), the “Average Freq. (%) MN-NCE” value amounted to 0.34%; the “Freq. (%) MN-NCE” value is 0.34% and 0.36% and 0.35% and 0.33%; the “No. MN-NCE” value was 1593 and 1573 and 1607 and 1628 and 1575; the “No. NCE” value was 473052 and 462539 and 450096 and 461882 and 475141. For the same molecule, the “frequency of micronucleated reticulocytes, time course” value in the data set with reticulocytes (setting [3]) was “rise sharply over the course of the first 40 hours; also recorded: rise and fall quickly”. In the data set on reticulocytes (24 h after 100 mg MMS/kg i.p.), the “Average Freq. (%) MN-RET” value turned out to be 0.81%; the “Freq. (%) MN-RET” value was 0.54% and 0.93% and 0.69% and 1.31% and 0.58%; the “No. MN-RET” value was 46 and 88 and 80 and 162 and 55; the “No. RET” value was 8531 and 9390 and 11532 and 12234 and 9391. In the data set with reticulocytes (40 h after 100 mg MMS/kg i.p.), the “Average Freq. (%) MN-RET” value turned out to be 4.20%; the “Freq. (%) MN-RET” value was 4.41% and 4.18% and 4.89% and 3.81% and 3.72%; the “No. MN-RET” value is 386 and 592 and 652 and 581 and 262; the “No. RET” value is 8373 and 13570 and 12679 and 14533 and 6785. Besides, in the data set with reticulocytes (48 h after 100 mg MMS/kg i.p.), the “Average Freq. (%) MN-RET” value amounted to 2.25%; the “Freq. (%) MN-RET” value is 2.92% and 2.09% and 2.10% and 1.86% and 2.29%; the “No. MN-RET” value is 355 and 366 and 396 and 431 and 211; the “No. RET” value was 11794 and 17187 and 18484 and 22687 and 8990. Moreover, in the data set with reticulocytes (72 h after 100 mg MMS/kg i.p.), the “Average Freq. (%) MN-RET” value is 0.41%; the “Freq. (%) MN-RET” value was 0.43% and 0.40% and 0.46% and 0.34%; the “No. MN-RET” value is 112 and 147 and 224 and 150 and 82; the “No. RET” value was 25838 and 36327 and 48913 and 36940 and 23744. In addition, the “time of maximum response (micronuclei formation)” value in the data set on micronuclei is 36 h.
